The record followed here is patent US20240409607A1, “STABILIZED MHC MOLECULES” (Immatics Biotechnologies GmbH, priority 2021, published 2024).

The structures appear in SMILES notation.

The subject of experiment [1] is HLA-A*02:01_ds 22-71. Nature of the experiment: TSA with fatty acids in 20 mM HEPES pH 7.0. Format: binding, human. Conditions: 50 mM fatty acid, 20 mM HEPES pH 7.0, protein 0.1 mg/ml. As for the experimental part:
(§1) After refolding the protein was concentrated by ultrafiltration and purified by size exclusion chromatography. Fatty acids were dissolved in or diluted with water and neutralized with NaOH to give stock solution of 0.5 M pH 7.
In order to find optimal storage and handling conditions for peptide free recombinant HLA-A*02:01 preparations, different compounds were screened in a thermal shift assay (TSA). […] The additives indicated in table 3 were added or alternatively water was added as a control. The raw data was exported and the analysis of the melting temperature was performed in Microsoft Excel. Protein stability was monitored over a temperature range from 30° C. to 70° C. […] The temperature at which the maximal increase of fluorescence compared to the previous measurement was observed, is defined as melting point in the respective composition.

For the next experiment, the system named is HLA-A*02:01 ds_84-139. Nature of the experiment: TSA with fatty acid and/or GM loading dipeptide. The class given is binding, human. Conditions: fatty acid 50 mM final or GM 10 mM final. As for the experimental part:
(§2) In order to find optimal storage and handling conditions for peptide free recombinant HLA-A*02:01 preparations, different compounds were screened in a thermal shift assay (TSA). Measurements were performed in the Applied Biosystems 7500 real time PCR instrument at a protein concentration of 0.1 mg/ml in a buffer of 20 mM Tris pH 8.0, 150 mM NaCl. The additives indicated in table 3 were added or alternatively water was added as a control. The raw data was exported and the analysis of the melting temperature was performed in Microsoft Excel. Protein stability was monitored over a temperature range from 30° C. to 70° C. […] The temperature at which the maximal increase of fluorescence compared to the previous measurement was observed, is defined as melting point in the respective composition.
(§3) Reference is made to FIGS. 5 to 7.

The next experiment deals with HLA-A*02:01_ds_22-71. Nature of the experiment: TSA with fatty acid and/or GM loading dipeptide. Conditions: fatty acid 50 mM final or GM 10 mM final. The class given is binding, human. Here is the method:
as §2, §3

Experiment [2] deals with HLA-A*02:01_ds 22-71. Conditions: 0.1 mg/ml protein, 20 mM Tris pH 8.0, 150 mM NaCl; for protein stability (melting point) in thermal shift assay: sodium butyrate 50 mM, GM dipeptide 10 mM, water as control. As for the experimental part:
as §1, §2

In the next experiment the test system is HLA-A*0201 ds 22-71. Nature of the experiment: TSA-screen with 40 different buffer conditions (different pH). Format: binding, human. The conditions noted are these: valeric acid 50 mM. As for the experimental part:
In a parallel TSA-screen with 40 different buffer conditions (MES pH between 5.8 to 7.2; BisTris pH between 5.8 to 7.2; MOPS pH between 6.5 to 7.9; HEPES pH 6.8 to 8.2; and Tris pH between 7.6 to 9.0), a clear link between pH conditions and stability of recombinant HLA was detected. In this experiment, a solution of 0.1 mg/ml HLA-A*0201 ds 22-71 in 20 mM HEPES pH 7.0 was supplemented with 0.1 volume of 1 M stock solution of the respective buffer. […] This pH range was also found to be optimal for peptide loaded HLA molecules. In order to test whether HLA is stabilized in different pH conditions by the fatty acids, a TSA-screen with the same 40 different buffer conditions was performed as described above. […] Accordingly, the stabilizing effect of the fatty acid on the HLA molecule was observed under different pH conditions.

On to `CC(C)CCC(=O)O` [4-methyl-valeric acid, 4-methyl-pentanoic acid], for which the “stabilizing effect on the HLA molecule (melting point), branched or unsaturated versus linear saturated fatty acids” value with HLA-A*02:01_ds 22-71 [1] was “showed a stabilizing effect on the HLA molecule”.
As to `CSCC[C@H](N)C(=O)O.NCC(=O)O` [glycine-methionine, reference compound], the “stabilization of the HLA protein, single additive” value (“stabilization of the HLA protein” for short) in the experiment on HLA-A*02:01 ds_84-139 and in the experiment on HLA-A*02:01_ds_22-71 was “Stabilization of the HLA proteins was observed” throughout. Moreover, the “protein stability (melting point) in thermal shift assay” value in the experiment on HLA-A*02:01_ds 22-71 [2] was “marked increase in protein stability”.
Turning to `CCCCCC(=O)O` [hexanoic acid], the “stabilization of the HLA protein” value in the experiment on HLA-A*02:01 ds_84-139 and in the experiment with HLA-A*02:01_ds_22-71 was “Stabilization of the HLA proteins was observed” each time.
On to `CCCC(=O)[O-].[Na+]` [sodium butyrate, Sodium butyrate], for which the “stabilization of the HLA protein” value in the experiment on HLA-A*02:01 ds_84-139 and in the experiment on HLA-A*02:01_ds_22-71 was “Stabilization of the HLA proteins was observed” in each case. For the same molecule, the “stabilizing effect compared to the dipeptide glycine-methionine” value in the experiment on HLA-A*02:01_ds 22-71 [2] (sodium butyrate 50 mM vs GM 10 mM) is recorded as “increased stabilizing effect”. The “protein stability (melting point) in thermal shift assay” value in the experiment on HLA-A*02:01_ds 22-71 [2] is given as “marked increase in protein stability”.
Turning to `CCCCC(=O)O` [valeric acid, Pentanoic acid], the “stabilizing effect compared to tests without the fatty acid” value in the experiment with HLA-A*0201 ds 22-71 (40 buffer conditions, MES, BisTris, MOPS, HEPES, Tris, pH 5.8 to 9.0, 100 mM buffer) is “increased in all pH conditions tested”. The “stabilizing effect in the pH range of 6 to 7.2” value with HLA-A*0201 ds 22-71 (pH 6 to 7.2) was “particularly increased”. Also, the “stabilization of the HLA protein” value in the experiment with HLA-A*02:01 ds_84-139 and in the experiment on HLA-A*02:01_ds_22-71 was “Stabilization of the HLA proteins was observed” throughout.
